Laboratory results: patent publication US20180360790A1, “NUTRITIONAL COMPOSITIONS AND INFANT FORMULAS TO PROMOTE MYELINATION IN THE BRAIN” (NESTEC S.A., priority 2015, published 2018)

System: brain myelination (myelin water fraction)
Test: Cross-sectional correlation of infant formula nutrient composition with brain myelination (mcDESPOT MRI, general linear model)
Format: in vivo, infants and young children
Settings: single GLM of quantified formula nutrients and child age vs myelin water fraction; children up to 5 years; 5 most frequently used formulas
Experimental: This technique provides a quantitative measure, the Myelin Water Fraction (MWF), which is a surrogate marker of myelin content. When mapped as a function of time across early childhood, myelination trajectories can be generated. Infant formula composition: six infant formulas fed to infants participating in study were analyzed for their composition/level of myelin-relevant nutrients. […] Infants included in this study were drawn from a larger longitudinal study of normal brain and behavioral development: the Brown university Assessment of Myelination and Behavior Across Maturation (BAMBAM). To focus on neurotypical development, children with known potential risk factors for learning, neurologic, or psychiatric disorders were specifically excluded during recruitment and enrollment. […] Each infant was scanned using the mcDESPOT (multicomponent Driven Equilibrium Single Pulse Observation of T1 and T2) white matter imaging technique Deoni et al. (Magn. Reson. Med. 2008, 60:1372-1387), which provides a quantitative measure of the myelin water fraction (MWF) at each imaging point throughout the brain. […] Mean values for each region were then determined for each child and used for subsequent developmental analysis and trajectory modeling.

Row | Substance | nutritional drivers for myelination indicated by the final model
1 | Iron | identified drivers
2 | sphingomyelin | identified drivers
